Measured values published in patent US10588280B2, “Aided delivery of plant treatment agents” (Monsanto Technology LLC, priority 2014, dated 2020).

Columns and labels:
[1] = system: haploid corn seedlings (SAM); assay: Example 2: single submerged centrifugation in colchicine, survival and doubling success; assay type: in vivo; settings: for DE / Fert. Success / Initial Survival / Poll. Success: single submerged spin 50 g 10 min
Text: Seeds of 5 different F1 hybrid-derived haploid commercial corn lines were randomly-selected and germinated in a greenhouse. The resulting seedlings were removed from soil or growth media at the V1-V2 growth stage and the soil or growth media rinsed from the plants with water. One sample of several random seedlings within each haploid line was placed in a centrifuge sample container without regard to how the shoot-root axis of the plants would be orientated with respect to the force of acceleration generated during the planned centrifugation. Next, a plant treatment solution comprising 1000 ppm colchicine was poured into the container such that the solution submerged each plants SAM, and then the sample centrifuged at 50 g for 10 min with the SAMs submerged in the plant treatment agent.
Following centrifugation, the plants were removed, rinsed with water to remove any remaining colchicine solution, and then recovered and tended in a light, humidity, and temperature-controlled greenhouse for several days before being transplanted to a nursery greenhouse.
The control sample received no centrifugation or colchicine exposure, but was otherwise handled identically as the treatment sample. During the subsequent growth of the plants, the initial survival, pollination success, fertilization success, and doubling efficiency (DE) were determined within each sample.

haploid corn seedlings = assay: Example 5: field transplanting survival after single or serial spin with colchicine; assay type: in vivo; settings: for 3-wk Survival (field transplanting): 50 g
Procedure: Haploid corn seedlings derived from a cross between commercial inbred 01DKD2 and the inducer KHI1 or commercial inbred 83IDI1 and KHI1 were treated by either single spin or serial spin centrifugation methods and recovered in a light, moisture, and temperature controlled environment for approximately 15 hours. Plants were then transplanted into a field and tended for three weeks, after which plant survival rates were assessed (Table 5).

[2] = system: haploid maize seedlings (shoot meristem); assay: Example 1: single unsubmerged centrifugation after colchicine soak, chromosome doubling success; assay type: in vivo; settings: 1250 ppm colchicine 10 min soak, unsubmerged spin 335 g 3 min
Text: Corn seeds of four different maize F1 hybrid-derived haploid induction populations were used in this experiment; two of the populations, Male 1 and Male 2, were derived from two different male inbred lines and the remaining two populations, Female 1 and Female 2, were derived from two different female inbred lines. Seeds of each germplasm were germinated in soil and the subsequent seedlings tended in a greenhouse under standard maize growing conditions until the seedlings reached the V1 to V2 growth stages.
Next, several randomly-selected seedlings of each germplasm were then removed from the soil, washed to remove residual soil and then subjected to a contacting step which included soaking the seedlings for 10 minutes in a liquid doubling agent comprising 1250 ppm colchicine.
After the contacting step, seedlings were bundled in a PCS with wooden rods, similar to that described in FIG. 9. The seedlings and rods were wrapped tightly together with several layers of aluminum foil. Care was taken to wrap the seedlings tightly, but not so tight as to damage the tissues of the seedling. The folds and layers of the wrap were arranged such that any liquid agent still clinging to the surface of the plant would not be trapped inside the wrap during centrifugation.
Once arranged in the centrifuge, seedlings were subjected to an unsubmerged centrifugation at 335 g for 3 min.
After centrifugation, the seedlings were removed from the centrifuge container, rinsed with water to remove any remaining plant treatment agent, and then transplanted into 10-inch pots in a growth room where they were tended under standard maize growing conditions until they grew to maturity and flowered.
Self-pollinations were attempted with each plant that survived the treatment to produce pollen and during the ensuing growth the pollination success, fertilization success and final doubling efficiency were determined within each sample.
Control samples of several randomly-selected seedlings from each germplasm received no exposure to the plant treatment agent, but were otherwise handled identically as their treated counterparts.

[3] = system: seedlings of inbred lines 83IDI1 or 91DUQ1; assay: Example 10: seedling survival after unsubmerged centrifugation for 3 or 180 min with colchicine; assay type: in vivo; settings: 1250 ppm colchicine submerged 50 g 3 min, after one week
Procedure: Seedlings of one of two genetically diverse inbred lines (83IDI1 or 91DUQ1) were germinated in a greenhouse and removed from soil or growth media at the V1-V3 growth stage and rinsed with water to remove residual soil. All seedlings were then secured in PCSs comprising wraps and rods, like that shown in FIG. 9, and subjected to a submerged spin at 50 g in a liquid treatment solution comprising 1250 ppm colchicine for 3 min.
Following the first, submerged centrifugation, the plant treatment solution was decanted and the bundled seedlings were subjected to an unsubmerged centrifugation at 340 g for either 3 or 180 min.
Following the second centrifugation, the plants were removed from the centrifugation container and rinsed with water to remove any remaining colchicine solution, and then recovered and tended in a light, humidity, and temperature-controlled greenhouse for one week, then the number of plants surviving were counted to determine the survival rate within each treatment.

seedlings = settings: cited from earlier work
[4] = Ave: of five lines, 1000 ppm colchicine
[5] = centrifuged samples, 1000 ppm colchicine, submerged 50 g 10 min, vs untreated controls
[6] = line F1004, 1000 ppm colchicine
[7] = line F1045, 1000 ppm colchicine
[8] = line F1095, 1000 ppm colchicine
[9] = line F1118, 1000 ppm colchicine
[10] = line F1900, 1000 ppm colchicine

Q: Which results are given for `COc1cc2c(c(OC)c1OC)-c1ccc(OC)c(=O)cc1[C@@H](NC(C)=O)CC2` [colchicine]?
A: DE [1, 4]: 30%; Fert. Success [1, 4]: 84%; Initial Survival [1, 4]: 77%; Poll. Success [1, 4]: 47%; drop in initial survival as compared to controls [1, 5]: 15%; improvement of overall average DE as compared to controls [1, 5]: 25%; DE [1, 6]: 50%; Fert. Success [1, 6]: 100%; Initial Survival [1, 6]: 100%; Poll. Success [1, 6]: 50%; DE [1, 7]: 25%; Fert. Success [1, 7]: 100%; Initial Survival [1, 7]: 58%; Poll. Success [1, 7]: 43%; DE [1, 8]: 47%; Fert. Success [1, 8]: 78%; Initial Survival [1, 8]: 87%; Poll. Success [1, 8]: 69%; DE [1, 9]: 10%; Fert. Success [1, 9]: 100%; Initial Survival [1, 9]: 40%; Poll. Success [1, 9]: 25%; DE [1, 10]: 10%; Fert. Success [1, 10]: 40%; Initial Survival [1, 10]: 100%; Poll. Success [1, 10]: 50%; individuals that produced pollen and silks ([1]; minimum over all five inbred samples receiving the experimental treatment): at least 25%; 3 week post transplanting survival rate (haploid corn seedlings; either haploid line, regardless of colchicine concentration or second spin): higher than 80%; 3-wk Survival (field transplanting) (haploid corn seedlings; haploid parent 01DKD2, 1000 ppm colchicine, submerged 10 min, no second spin): 94%; 3-wk Survival (field transplanting) (haploid corn seedlings; haploid parent 01DKD2, 1250 ppm colchicine, submerged 3 min, unsubmerged 3 min, 335 g): 89%; 3-wk Survival (field transplanting) (haploid corn seedlings; haploid parent 83IDI1, 1000 ppm colchicine, submerged 10 min, no second spin): 81%; 3-wk Survival (field transplanting) (haploid corn seedlings; haploid parent 83IDI1, 1250 ppm colchicine, submerged 3 min, unsubmerged 3 min, 335 g): 83%; DE (doubling efficiency) ([2]; Female1): 42%; Fertilization Successes ([2]; Female1, 19 plants treated): 8; Pollination Successes ([2]; Female1, 19 plants treated): 10; DE (doubling efficiency) ([2]; Female2): 50%; Fertilization Successes ([2]; Female2, 8 plants treated): 4; Pollination Successes ([2]; Female2, 8 plants treated): 6; DE (doubling efficiency) ([2]; Male1): 71%; Fertilization Successes ([2]; Male1, 14 plants treated): 10; Pollination Successes ([2]; Male1, 14 plants treated): 13; DE (doubling efficiency) ([2]; Male2): 67%; Fertilization Successes ([2]; Male2, 15 plants treated): 10; Pollination Successes ([2]; Male2, 15 plants treated): 12; Survival ([3]; pedigree 83IDI1, unsubmerged 340 g for 3 minutes): 93%; Survival ([3]; pedigree 83IDI1, unsubmerged 340 g for 180 minutes): 94%; Survival ([3]; pedigree 91DUQ1, unsubmerged 340 g for 3 minutes): 95%; Survival ([3]; pedigree 91DUQ1, unsubmerged 340 g for 180 minutes): 96%; average success rate (seedlings; Eder and Chalyk (2002), procedure of Deimling et al.: 0.06% colchicine and DMSO, 12 hours, dark room, range of genotypes): ~50%; doubling rate (seedlings; Gayen et al. (1994): coleoptile tips removed, extended (6+ hours) soak, colchicine 0.1% or less): 18.05%
